Laboratory results: patent publication EP3368527B1, “PALBOCICLIB TOSYLATE” (Egis Gyógyszergyár Zrt., priority 2015, dated 2017)
Like-named read-outs stand apart in the source and are kept apart here.

Legend:
[1] = Dynamic vapour sorption analysis (DVS): water sorption isotherms, hygroscopicity; assay type: physicochemical; conditions: 25 °C
[2] = WO 2005/005426, in words; cited from earlier work
[3] = low relative humidity (10% RH); cited from earlier work

## CC(=O)c1c(C)c2cnc(Nc3ccc(N4CCNCC4)cn3)nc2n(C2CCCC2)c1=O.O=S(=O)(O)CCO [palbociclib isethionate Form B]
3 weeks, 25 °C 90% RH
  Known contaminant 2 (RT 1.97 min): 0.09%
  Total contamination: 0.28%
  Total unknown contaminant: 0.19%
  Unknown contaminant (RT 1.70 min): 0.03%
  Unknown contaminant (RT 2.56 min): 0.16%
  Water content: 0.97% m/m%
3 weeks, 40 °C 70% RH
  Known contaminant 2 (RT 1.97 min): 0.10%
  Total contamination: 0.27%
  Total unknown contaminant: 0.17%
  Unknown contaminant (RT 1.70 min): 0.03%
  Unknown contaminant (RT 2.56 min): 0.14%
  Water content: 0.76% m/m%
3 weeks, 70 °C
  Known contaminant 2 (RT 1.97 min): 0.09%
  Total contamination: 0.28%
  Total unknown contaminant: 0.19%
  Unknown contaminant (RT 1.70 min): 0.03%
  Unknown contaminant (RT 2.56 min): 0.16%
  Water content: 0.83% m/m%
Starting sample
  Known contaminant 2 (RT 1.97 min): 0.09%
  Total contamination: 0.29%
  Total unknown contaminant: 0.20%
  Unknown contaminant (RT 1.36 min): 0.03%
  Unknown contaminant (RT 1.70 min): 0.03%
  Unknown contaminant (RT 2.56 min): 0.14%
  Water content: 0.36% m/m%

## palbociclib citrate (1:1) monohydrate salt
[1]
  hygroscopicity (water sorption isotherms): exhibits significant hygroscopicity

## palbociclib napsylate (1:1) salt
[1]
  hygroscopicity (water sorption isotherms): does not exhibit significant hygroscopicity

## CC(=O)c1c(C)c2cnc(Nc3ccc(N4CCNCC4)cn3)nc2n(C2CCCC2)c1=O.Cl.Cl [palbociclib di-HCI salt]
[2]
  water solubility: suitable water solubility
[3]
  amount of water absorbed: > 2 m/m %

## palbociclib napsylate (1:2) dihydrate salt
[1]
  hygroscopicity (water sorption isotherms): exhibits significant hygroscopicity

## palbociclib oxalate (1:1) salt
[1]
  hygroscopicity (water sorption isotherms): does not exhibit significant hygroscopicity

## palbociclib sulphate (C24H29N7O2 . ½ H2SO4 . 2 H2O) dihydrate salt
[1]
  hygroscopicity (water sorption isotherms): exhibits significant hygroscopicity
